These molecules were tested on HCV replicon (assay: HCV replicon replication assay (NPT ELISA) in Huh-7 replicon-containing cells). Details: Hepatitis C virus, 72 h; HCV replicon in Huh-7 cells, three days incubation; read-out: EC50.
Format: cell-based
In short: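 Replication was scored by capture ELISA of neomycin phosphotransferase, whose level tracks replicon replication, after graded compound treatment. The cells were Huh-7 harbouring an HCV-IRES/neo/EMCV-IRES/NS3–NS5B/3′-NTR replicon, plated at 6000-7500 cells/well and dosed 24 h later at 60-70% confluence; interferon alpha was the positive control.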
With `C=C[C@@H]1C[C@]1(NC(=O)[C@@H]1C[C@@H](NC(=O)n2c3ccccc3c3ccccc32)CN1C(=O)[C@@H](CC(=O)N1CC2CCC1C2)C(C)(C)C)C(=O)NS(=O)(=O)C1CC1` (stereo partly drawn) [Compound 198, N-((3R,5S)-1-((2S)-2-(2-(2-aza-bicyclo[2.2.1]heptan-2-yl)-2-oxoethyl)-3,3-dimethylbutanoyl)-5-((1R)-1-(cyclo-propylsulfonyl-carbamoyl)-2-vinylcyclopropyl-carbamoyl)pyrrolidin-3-yl)-9H-carbazole-9-carboxamide] the EC50 was < 1 µM. `C=CC1C[C@]1(NC(=O)[C@@H]1C[C@@H](NC(=O)c2cc(-c3ccccc3)nc3ccccc23)CN1C(=O)[C@@H](CC(=O)N1CCC(C(F)(F)F)CC1)C(C)(C)C)C(=O)NS(=O)(=O)C1CC1` (stereo partly drawn) [Compound 199, N-((3R,5S)-1-((S)-2-tert-butyl-4-oxo-4-(4-(trifluoromethyl)piper-idin-1-yl)butanoyl)-5-((1R,2S)-1-(cyclo-propylsulfonyl-carbamoyl)-2-vinyl-cyclopropyl-carbamoyl)pyrrolidin-3-yl)-2-phenylquinoline-4-carboxamide] was tested, and the EC50 was < 1 µM. With `C=C[C@@H]1C[C@]1(NC(=O)[C@@H]1C[C@@H](NC(=O)c2cc(-c3ccccc3)nc3ccccc23)CN1C(=O)[C@@H](CC(=O)N1CCC(F)(F)CC1)C(C)(C)C)C(=O)NS(=O)(=O)C1CC1` [Compound 200, N-((3R,5S)-1-((S)-2-tert-butyl-4-(4,4-difluoropiperidin-1-yl)-4-oxobutanoyl)-5-((1R,2S)-1-(cyclopropylsulfonyl-carbamoyl)-2-vinylcyclopropyl-carbamoyl)pyrrolidin-3-yl)-2-phenylquinoline-4-carboxamide] the EC50 was < 1 µM. With `C=C[C@@H]1C[C@]1(NC(=O)[C@@H]1C[C@@H](NC(=O)c2cc(-c3ccccc3)nc3ccccc23)CN1C(=O)[C@@H](CC(=O)N1CCC(F)(F)C1)C(C)(C)C)C(=O)NS(=O)(=O)C1CC1` [Compound 201, N-((3R,5S)-1-((S)-2-tert-butyl-4-(3,3-difluoropyrrolidin-1-yl)-4-oxobutanoyl)-5-((1R,2S)-1-(cyclopropylsulfonyl-carbamoyl)-2-vinylcyclopropyl-carbamoyl)pyrrolidin-3-yl)-2-phenylquinoline-4-carboxamide] the EC50 was < 1 µM. `C=C[C@@H]1C[C@]1(NC(=O)[C@@H]1C[C@@H](NC(=O)c2cc(-c3ccccc3)nc3ccccc23)CN1C(=O)[C@@H](CC(=O)N1CCCC(F)(F)C1)C(C)(C)C)C(=O)NS(=O)(=O)C1CC1` [Compound 202, N-((3R,5S)-1-((S)-2-tert-butyl-4-(3,3-difluoropiperidin-1-yl)-4-oxobutanoyl)-5-((1R,2S)-1-(cyclo-propylsulfonyl-carbamoyl)-2-vinyl-cyclopropyl-carbamoyl)pyrrolidin-3-yl)-2-phenylquinoline-4-carboxamide] was tested, and the EC50 was < 1 µM. For `C=C[C@@H]1C[C@]1(NC(=O)[C@@H]1C[C@@H](NC(=O)c2cc(-c3ccccc3)nc3ccccc23)CN1C(=O)[C@@H](CC(=O)N1CCCCCC1)C(C)(C)C)C(=O)NS(=O)(=O)C1CC1` [Compound 203, N-((3R,5S)-1-((S)-4-(azepan-1-yl)-2-tert-butyl-4-oxobutanoyl)-5-((1R,2S)-1-(cyclo-propylsulfonyl-carbamoyl)-2-vinylcyclopropyl-carbamoyl)pyrrolidin-3-yl)-2-phenylquinoline-4-carboxamide], the EC50 was < 1 µM. With `C=C[C@@H]1C[C@]1(NC(=O)[C@@H]1C[C@@H](NC(=O)c2cc(-c3ccccc3)nc3ccccc23)CN1C(=O)[C@@H](CC(=O)N1CCCC(F)C1)C(C)(C)C)C(=O)NS(=O)(=O)C1CC1` (stereo partly drawn) [Compound 204, N-((3R,5S)-1-((2S)-2-tert-butyl-4-(3-fluoropiperidin-1-yl)-4-oxobutanoyl)-5-((1R,2S)-1-(cyclopropylsulfonyl-carbamoyl)-2-vinyl-cyclopropyl-carbamoyl)pyrrolidin-3-yl)-2-phenylquinoline-4-carboxamide] the EC50 was < 1 µM. In the case of `C=C[C@@H]1C[C@]1(NC(=O)[C@@H]1C[C@@H](NC(=O)c2cc(-c3ccccc3)nc3ccccc23)CN1C(=O)[C@@H](CC(=O)N1CCC(F)CC1)C(C)(C)C)C(=O)NS(=O)(=O)C1CC1` [Compound 205, N-((3R,5S)-1-((S)-2-tert-butyl-4-(4-fluoropiperidin-1-yl)-4-oxobutanoyl)-5-((1R,2S)-1-(cyclopropylsulfonyl-carbamoyl)-2-vinyl-cyclopropyl-carbamoyl)pyrrolidin-3-yl)-2-phenylquinoline-4-carboxamide], the EC50 is reported as < 1 µM. In the case of `C=C[C@@H]1C[C@]1(NC(=O)[C@@H]1C[C@@H](Oc2cc(-c3ccccn3)nc3c(Cl)c(OC)ccc23)CN1C(=O)[C@@H](CC(=O)N1CCC(F)(F)C1)C(C)(C)C)C(=O)NS(=O)(=O)C1CC1` [Compound 206, (2S,4R)-1-((S)-2-tert-butyl-4-(3,3-difluoropyrrolidin-1-yl)-4-oxobutanoyl)-4-(8-chloro-7-methoxy-2-(pyridin-2-yl)quinolin-4-yloxy)-N-((1R)-1-(cyclopropylsulfonyl-carbamoyl)-2-vinylcyclopropyl)pyr-rolidine-2-carboxamide], the EC50 is reported as < 1 µM. `C=C[C@@H]1C[C@]1(NC(=O)[C@@H]1C[C@@H](Oc2cc(-c3ccccn3)nc3c(Cl)c(OC)ccc23)CN1C(=O)[C@@H](CC(=O)N1CCCC1C(F)(F)F)C(C)(C)C)C(=O)NS(=O)(=O)C1CC1` (stereo partly drawn) [Compound 207, (2S,4R)-1-((2S)-2-tert-butyl-4-oxo-4-(2-(trifluoromethyl)pyr-rolidin-1-yl)butanoyl)-4-(8-chloro-7-methoxy-2-(pyridin-2-yl)quinolin-4-yloxy)-N-((1R)-1-(cyclopropylsulfonyl-carbamoyl)-2-vinylcyclopropyl)pyr-rolidine-2-carboxamide] was tested, and the EC50 was < 1 µM. `C=C[C@@H]1C[C@]1(NC(=O)[C@@H]1C[C@@H](Oc2cc(-c3ccccn3)nc3c(Cl)c(OC)ccc23)CN1C(=O)[C@@H](CC(=O)N1CCC(C(F)(F)F)CC1)C(C)(C)C)C(=O)NS(=O)(=O)C1CC1` [Compound 208, (2S,4R)-1-((S)-2-tert-butyl-4-oxo-4-(4-(trifluoro-methyl)piperidin-1-yl)butanoyl)-4-(8-chloro-7-methoxy-2-(pyridin-2-yl)quinolin-4-yloxy)-N-((1R)-1-(cyclopropyl-sulfonylcarbamoyl)-2-vinylcyclo-propyl)pyrrolidine-2-carboxamide] was tested, and the EC50 was < 1 µM. `C=C[C@@H]1C[C@]1(NC(=O)[C@@H]1C[C@@H](Oc2cc(-c3ccccn3)nc3c(Cl)c(OC)ccc23)CN1C(=O)[C@@H](CC(=O)N1CCCC(F)C1)C(C)(C)C)C(=O)NS(=O)(=O)C1CC1` (stereo partly shown) [Compound 209] was tested, and the EC50 was < 1 µM. In the case of `C=C[C@@H]1C[C@]1(NC(=O)[C@@H]1C[C@@H](Oc2cc(-c3ccccc3)nc3cc(OC)ccc23)CN1C(=O)[C@@H](CC(=O)N1CCCCC1)C(C)(C)C)C(=O)O` [Compound 210, (1R)-1-((2S,4R)-1-((S)-2-tert-butyl-4-oxo-4-(piperidin-1-yl)butanoyl)-4-(7-methoxy-2-phenylquinolin-4-yloxy)pyrrolidine-2-carboxamido)-2-vinylcyclopropane-carboxylic acid], the EC50 is reported as > 10 µM.

Reference: patent US9133115B2 (ACHILLION PHARMACEUTICALS, INC., priority 2008, dated 2015)
